Test results taken from the supplement of paper PMC11061612.

Assays:
Assay in all cases: combination Emax (second highest fraction inhibited in the dose matrix, 72 h); higher = more inhibition; extreme values may be limits of the assay
TGW (Neuroblastoma) = test system: TGW (Neuroblastoma)
Summary of the method: (§1)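 Cell lines in DMEM/F12 or RPMI with 10% FBS were plated in 1536-well plates, held 24 hours at 37°C, 5% CO2, then given two-drug dose matrices for 72 hours (DMSO typically 0.2%). Viability was read by CellTiter-Glo 2.0 luminescence and scaled as inhibition from 0 (vehicle wells) to 1 (blank wells). Combination Emax is the second-highest inhibition in the matrix; Bliss excess is observed combination effect minus expected EA + EB − EA·EB, EA and EB being single-agent effects.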

EW-24 (Ewing's Sarcoma) = test system: EW-24 (Ewing's Sarcoma)
Summary of the method: as §1

[1] = test system: KARPAS-299 (T-Cell Non-Hodgkin's Lymphoma)
Summary of the method: as §1

YH-13 (Glioblastoma) = test system: YH-13 (Glioblastoma)
Summary of the method: as §1

[2] = test system: VA-ES-BJ (Other Solid Carcinomas)
Summary of the method: as §1

[3] = test system: NEC8 (Other Solid Carcinomas)
Summary of the method: as §1

[4] = test system: LU-65 (Non-Small Cell Lung Carcinoma)
Summary of the method: as §1

PWR-1E (Non-Cancerous) = test system: PWR-1E (Non-Cancerous)
Summary of the method: as §1

[5] = test system: PANC-04-03 (Pancreatic Carcinoma)
Summary of the method: as §1

[6] = test system: NUGC-3 (Gastric Carcinoma)
Summary of the method: as §1

[7] = test system: NCI-H1915 (Non-Small Cell Lung Carcinoma)
Summary of the method: as §1

[8] = test system: RF-48 (B-Cell Non-Hodgkin's Lymphoma)
Summary of the method: as §1

[9] = test system: Caov-4 (Ovarian Carcinoma)
Summary of the method: as §1

[10] = test system: KYSE-450 (Esophageal Squamous Cell Carcinoma)
Summary of the method: as §1

[11] = test system: HGC-27 (Gastric Carcinoma)
Summary of the method: as §1

[12] = test system: HSC-4 (Oral Cavity Carcinoma)
Summary of the method: as §1

ACHN (Kidney Carcinoma) = test system: ACHN (Kidney Carcinoma)
Summary of the method: as §1

[13] = test system: HOP-62 (Lung Adenocarcinoma)
Summary of the method: as §1

[14] = test system: MIA-PaCa-2 (Pancreatic Carcinoma)
Summary of the method: as §1

[15] = test system: Ca9-22 (Head and Neck Carcinoma)
Summary of the method: as §1

SMILES	combination Emax (TGW (Neuroblastoma))	combination Emax (EW-24 (Ewing's Sarcoma))	combination Emax [1]	combination Emax (YH-13 (Glioblastoma))	combination Emax [2]	combination Emax [3]	combination Emax [4]	combination Emax (PWR-1E (Non-Cancerous))	combination Emax [5]	combination Emax [6]	combination Emax [7]	combination Emax [8]	combination Emax [9]	combination Emax [10]	combination Emax [11]	combination Emax [12]	combination Emax (ACHN (Kidney Carcinoma))	combination Emax [13]	combination Emax [14]	combination Emax [15]
Cc1c2c(nn1C)CSCc1cc(n(C)n1)CSc1cc(c3ccccc3c1)OCCCc1c(C(=O)O)n(C)c3c-2c(Cl)ccc13 [AZD5991] + CC1(C)CCC(CN2CCN(c3ccc(C(=O)NS(=O)(=O)c4ccc(NCC5CCOCC5)c([N+](=O)[O-])c4)c(Oc4cnc5[nH]ccc5c4)c3)CC2)=C(c2ccc(Cl)cc2)C1 [Venetoclax] (first compound max 1 µM, 7x7, partner max 1 µM)	0.857	0.38	0.968	0.145	0.145	0.793	0.393	0.199	0.175	0.196	0.187	0.497	0.616	0.189	0.895	0.142	0.192	0.0765	0.451	0.725
Cc1c2c(nn1C)CSCc1cc(n(C)n1)CSc1cc(c3ccccc3c1)OCCCc1c(C(=O)O)n(C)c3c-2c(Cl)ccc13 [AZD5991] + CCN(CCO)CCCOc1ccc2c(Nc3cc(CC(=O)Nc4cccc(F)c4)[nH]n3)ncnc2c1 [AZD2811] (first compound max 1 µM, 7x7, partner max 1 µM)	0.402	0.383	0.987	0.579	0.395	0.33	0.343	0.939	0.237	0.391	0.294	0.262	0.743	0.54	1	0.404	0.27	0.446	0.66	0.465
Cc1c2c(nn1C)CSCc1cc(n(C)n1)CSc1cc(c3ccccc3c1)OCCCc1c(C(=O)O)n(C)c3c-2c(Cl)ccc13 [AZD5991] + C[C@@H]1COCCN1C2=NC(=NC(=C2)C3(CC3)[S@](=N)(=O)C)C4=C5C=CNC5=NC=C4 [AZD6738] (first compound max 1 µM, 7x7, partner max 10 µM)	0.714	0.53	1	0.46	0.686	0.978	0.675	0.985	0.479	0.69	0.504	0.545	0.914	0.55	0.849	0.678	0.948	0.784	0.706	0.93
Cc1c2c(nn1C)CSCc1cc(n(C)n1)CSc1cc(c3ccccc3c1)OCCCc1c(C(=O)O)n(C)c3c-2c(Cl)ccc13 [AZD5991] + C[C@@H](Nc1cc(F)cc(F)c1)c1cc(C(=O)N(C)C)cc2c(=O)cc(N3CCOCC3)oc12 [AZD8186] (first compound max 1 µM, 7x7, partner max 3 µM)	0.347	0.291	0.957	0.585	0.322	0.369	0.449	0.268	0.266	0.209	0.184	0.365	0.507	0.234	0.691	0.24	0.342	0.281	0.336	0.521
Cc1c2c(nn1C)CSCc1cc(n(C)n1)CSc1cc(c3ccccc3c1)OCCCc1c(C(=O)O)n(C)c3c-2c(Cl)ccc13 [AZD5991] + Cc1cc2ncnn2cc1Nc1ncc2c(n1)n(C1CCOCC1)c(=O)n2C [AZD7648] (first compound max 1 µM, 7x7, partner max 10 µM)	0.339	0.258	1	0.351	0.221	0.339	0.397	0.247	0.342	0.428	0.3	0.262	0.57	0.268	0.603	0.171	0.246	0.281	0.354	0.214
Cc1c2c(nn1C)CSCc1cc(n(C)n1)CSc1cc(c3ccccc3c1)OCCCc1c(C(=O)O)n(C)c3c-2c(Cl)ccc13 [AZD5991] + Cn1cnc2c(F)c(Nc3ccc(Br)cc3Cl)c(C(=O)NOCCO)cc21 [Selumetinib] (first compound max 1 µM, 7x7, partner max 3 µM)	0.381	0.214	0.992	0.178	0.184	0.383	0.716	0.21	0.432	0.355	0.568	0.21	0.856	0.331	0.306	0.278	0.4	0.426	0.623	0.581
